Source: ChEMBL document CHEMBL4406877, “Synthesis of 2-arylhydrazinylidene-3-oxo-4,4,4-trifluorobutanoic acids as new selective carboxylesterase inhibitors and radical scavengers” (Bioorg Med Chem Lett, 2019)
Calls of active or inactive are those of the source. No cut-off for these calls is given here.

Legend:
[1] = Potency index, ratio of trolox IC50 to test compound IC50 for antioxidant activity assessed as decrease in ABTS radical cation scavenging activity; assay type: functional
[2] = Antioxidant activity assessed as decrease in ABTS radical cation scavenging activity every 1 min for 6 mins by UV-Vis spectrophotometric analysis; assay type: functional
[3] = target: Acetylcholinesterase (Homo sapiens) (UniProt P22303); assay: Inhibition of human erythrocyte AChE at 20 uM using acetylthiocholine iodide as substrate preincubated for 10 mins followed by substrate addition by Ellman's method relative to control
Sequence of Acetylcholinesterase (Homo sapiens) (P22303 whole entry): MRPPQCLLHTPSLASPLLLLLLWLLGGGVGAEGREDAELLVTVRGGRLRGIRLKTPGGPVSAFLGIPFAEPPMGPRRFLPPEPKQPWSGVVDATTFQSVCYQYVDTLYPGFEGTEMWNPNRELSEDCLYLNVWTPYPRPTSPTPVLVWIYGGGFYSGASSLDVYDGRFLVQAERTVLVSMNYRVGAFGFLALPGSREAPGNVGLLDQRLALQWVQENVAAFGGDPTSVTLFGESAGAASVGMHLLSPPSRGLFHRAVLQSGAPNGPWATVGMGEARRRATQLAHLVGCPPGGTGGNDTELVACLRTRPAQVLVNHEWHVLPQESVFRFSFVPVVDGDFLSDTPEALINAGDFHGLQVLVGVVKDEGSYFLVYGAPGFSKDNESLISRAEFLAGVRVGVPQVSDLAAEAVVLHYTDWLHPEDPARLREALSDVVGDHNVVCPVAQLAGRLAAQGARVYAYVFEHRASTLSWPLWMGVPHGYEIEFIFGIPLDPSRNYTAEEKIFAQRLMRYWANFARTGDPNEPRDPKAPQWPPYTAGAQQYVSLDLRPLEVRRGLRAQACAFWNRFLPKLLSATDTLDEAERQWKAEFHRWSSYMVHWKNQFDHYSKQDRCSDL

[4] = target: T1, Liver carboxylesterase (Sus scrofa, UniProt Q29550); assay: Inhibition of porcine liver carboxylesterase using 4-NPA as substrate preincubated for 10 mins followed by substrate addition by spectrophotometric analysis
T1 sequence (Q29550 whole entry): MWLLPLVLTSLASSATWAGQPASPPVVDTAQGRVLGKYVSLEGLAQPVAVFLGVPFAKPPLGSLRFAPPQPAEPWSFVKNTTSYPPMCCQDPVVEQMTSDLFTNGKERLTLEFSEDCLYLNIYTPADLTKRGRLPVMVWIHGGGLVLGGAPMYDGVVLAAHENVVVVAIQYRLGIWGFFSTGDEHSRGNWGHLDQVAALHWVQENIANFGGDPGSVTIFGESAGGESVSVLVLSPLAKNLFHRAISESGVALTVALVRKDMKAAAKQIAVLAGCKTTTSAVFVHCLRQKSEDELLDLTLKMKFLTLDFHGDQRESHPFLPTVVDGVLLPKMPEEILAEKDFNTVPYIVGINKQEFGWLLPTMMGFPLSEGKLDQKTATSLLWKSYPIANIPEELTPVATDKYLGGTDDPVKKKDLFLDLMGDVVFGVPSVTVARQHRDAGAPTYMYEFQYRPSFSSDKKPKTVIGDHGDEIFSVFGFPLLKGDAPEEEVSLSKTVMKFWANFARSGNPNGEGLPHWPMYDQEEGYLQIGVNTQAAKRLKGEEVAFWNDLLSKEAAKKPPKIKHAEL

[5] = target: Cholinesterase (Equus caballus) (UniProt P81908); assay: Inhibition of equine serum BuChE at 20 uM using […] as substrate preincubated for 10 mins followed by substrate addition by Ellman's method relative to control
Sequence of Cholinesterase (Equus caballus) (P81908 whole entry): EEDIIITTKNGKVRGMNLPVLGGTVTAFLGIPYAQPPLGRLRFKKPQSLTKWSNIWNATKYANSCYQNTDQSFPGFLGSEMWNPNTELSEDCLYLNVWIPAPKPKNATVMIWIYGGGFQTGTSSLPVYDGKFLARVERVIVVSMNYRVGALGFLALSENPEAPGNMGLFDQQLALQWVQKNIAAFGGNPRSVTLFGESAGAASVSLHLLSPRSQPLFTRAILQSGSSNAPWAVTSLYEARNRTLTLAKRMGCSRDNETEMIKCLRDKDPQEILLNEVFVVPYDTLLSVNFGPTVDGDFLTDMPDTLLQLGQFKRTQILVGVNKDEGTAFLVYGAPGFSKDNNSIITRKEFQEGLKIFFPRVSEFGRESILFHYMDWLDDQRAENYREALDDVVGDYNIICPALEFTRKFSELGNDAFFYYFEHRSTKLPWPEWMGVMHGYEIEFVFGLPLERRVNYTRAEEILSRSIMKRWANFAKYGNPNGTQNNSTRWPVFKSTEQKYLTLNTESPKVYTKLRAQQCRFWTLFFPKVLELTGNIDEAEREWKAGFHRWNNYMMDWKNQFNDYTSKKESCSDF

[6] = Antioxidant activity assessed as decrease in ABTS radical cation scavenging activity after 1 min by UV-Vis spectrophotometric analysis relative to control; assay type: functional; parameters: scale not given: the % may be the effect or the level left
[7] = Potency index, ratio of ascorbic acid IC50 to test compound IC50 for antioxidant activity assessed as decrease in ABTS radical cation scavenging activity; assay type: functional
[8] = target: T1, Liver carboxylesterase; assay: Non-competitive inhibition of porcine liver carboxylesterase by double reciprocal Lineweaver-Burk plot analysis; conditions: pig
[9] = target: T1, Liver carboxylesterase; assay: Competitive inhibition of porcine liver carboxylesterase by double reciprocal Lineweaver-Burk plot analysis
[10] = target: T1, Liver carboxylesterase; assay: Inhibition of porcine liver carboxylesterase at 20 uM using 4-NPA as substrate preincubated for 10 mins followed by substrate addition by spectrophotometric analysis relative to control; conditions: pig

**Q.** For `COc1ccc(N/N=C(\C(=O)O)C(=O)C(F)(F)F)cc1`, which Ratio IC50 [1] is on record?
**A.** The Ratio IC50 was 1.9.

**Q.** And the IC50 [2]?
**A.** The IC50 was 11 µM.

**Q.** And the inhibition [3]?
**A.** Its inhibition is “inactive”.

**Q.** And the IC50 [4]?
**A.** The IC50 was 2.62 µM.

**Q.** And the inhibition [5]?
**A.** Its inhibition is 17.3%.

**Q.** And the Activity [6]?
**A.** Its Activity is 75%.

**Q.** And the Ratio IC50 [7]?
**A.** The Ratio IC50 was 2.

**Q.** With `Cc1ccc(N/N=C(\C(=O)O)C(=O)C(F)(F)F)cc1` as the compound, how does the alphaKi [8] read?
**A.** The alphaKi was 1.11 µM.

**Q.** And the Ratio IC50 [1]?
**A.** Its Ratio IC50 is 1.69.

**Q.** And the IC50 [2]?
**A.** Its IC50 is 12.1 µM.

**Q.** What about the inhibition [3] of the same compound?
**A.** Its inhibition is “inactive”.

**Q.** And the IC50 [4]?
**A.** The IC50 was 0.63 µM.

**Q.** What about the inhibition [5] of the same compound?
**A.** The inhibition was 18.1%.

**Q.** And the Ki [9]?
**A.** Its Ki is 0.337 µM.

**Q.** And the Ratio IC50 [7]?
**A.** The Ratio IC50 was 2.

**Q.** Which Ratio IC50 [1] does the source give for `COc1ccc(N/N=C(/C(C)=O)C(=O)O)cc1` here?
**A.** The Ratio IC50 was 1.9.

**Q.** What about the IC50 [2] of the same compound?
**A.** The IC50 was 9.7 µM.

**Q.** And the inhibition [3]?
**A.** Its inhibition is “inactive”.

**Q.** What about the “inhibition (INH)” value ([10]; 20 µM) of the same compound?
**A.** The value was “Not Active”.

**Q.** And the inhibition [5]?
**A.** The inhibition was 5.4%.

**Q.** For `O=C(O)/C(=N\Nc1ccc([N+](=O)[O-])cc1)C(=O)C(F)(F)F`, which Ratio IC50 [1] is on record?
**A.** The Ratio IC50 was 0.05.

**Q.** What about the inhibition [3] of the same compound?
**A.** Its inhibition is 6.1%.

**Q.** And the IC50 [4]?
**A.** Its IC50 is 2.76 µM.

**Q.** What about the inhibition [5] of the same compound?
**A.** The inhibition was 17.3%.

**Q.** With `Cc1c(C)c2c(c(C)c1O)CCC(C)(C(=O)O)O2` (stereo not drawn) [TROLOX] as the compound, how does the IC50 [2] read?
**A.** Its IC50 is 20.4 µM.

**Q.** With `O=C1O[C@H]([C@@H](O)CO)C(O)=C1O` [ASCORBIC ACID] as the compound, how does the Ratio IC50 [1] read?
**A.** Its Ratio IC50 is 0.98.

**Q.** What about the IC50 [2] of the same compound?
**A.** The IC50 was 21.4 µM.

**Q.** For `CCOC(=O)c1ccc(N/N=C(\C(=O)O)C(=O)C(F)(F)F)cc1`, which Ratio IC50 [1] is on record?
**A.** Its Ratio IC50 is 0.25.

**Q.** What about the IC50 [2] of the same compound?
**A.** The IC50 was 96.4 µM.

**Q.** What about the inhibition [3] of the same compound?
**A.** Its inhibition is 8.1%.

**Q.** What about the IC50 [4] of the same compound?
**A.** The IC50 was 0.324 µM.

**Q.** And the inhibition [5]?
**A.** Its inhibition is 3.4%.

**Q.** Which Ratio IC50 [1] does the source give for `CCOC(=O)c1ccccc1N/N=C(\C(=O)O)C(=O)C(F)(F)F` here?
**A.** The Ratio IC50 was 0.01.

**Q.** What about the inhibition [3] of the same compound?
**A.** The inhibition was 16.5%.

**Q.** And the IC50 [4]?
**A.** Its IC50 is 0.0696 µM.

**Q.** What about the inhibition [5] of the same compound?
**A.** The inhibition was 8.7%.

**Q.** Which results are given for `CC(=O)/C(=N/Nc1ccc(C)cc1)C(=O)O`?
**A.** Ratio IC50 [1]: 1.65; IC50 [2]: 12.8 µM; inhibition [3]: inactive; inhibition at 20 µM ([10]; porcine liver carboxylesterase, probe 4-NPA): 9.3%; inhibition [5]: inactive

**Q.** With `O=[N+]([O-])c1ccc(OP(=O)(O)Oc2ccc([N+](=O)[O-])cc2)cc1` as the compound, how does the inhibition [3] read?
**A.** Its inhibition is “inactive”.

**Q.** What about the inhibition [5] of the same compound?
**A.** Its inhibition is “inactive”.
